Measurements: PubChem BioAssay AID2060888 (Molecular Pharmacology Branch, DTP, NCI, 2025)

Tested on: 695427-040-R-J1-PDC complex spheroid viability
Assay: Anticancer human tumor 695427-040-R-J1-PDC patient-derived colon adenocarcinoma cell line growth inhibition [RAS]
Settings: for IC50: curve of first compound; for viability, T/C: stronger effect = lower value
Method in brief: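 Tumour cells grown as complex spheroids with HUVEC endothelial cells and mesenchymal stem cells, treated with RAS pathway inhibitor combinations. Each agent spans half-log steps from near clinical Cmax, or 10 microM where Cmax is unknown.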

[1] = second compound 0.000949 µM, first compound 0.00316 µM
[2] = second compound 0.000949 µM, first compound 0.01 µM
[3] = second compound 0.000949 µM, first compound 0.0316 µM
[4] = second compound 0.000949 µM, first compound 0.1 µM
[5] = second compound 0.000949 µM, first compound 0.316 µM
[6] = second compound 0.000949 µM, first compound 1 µM
[7] = second compound 0.003 µM, first compound 0.00316 µM
[8] = second compound 0.003 µM, first compound 0.01 µM
[9] = second compound 0.003 µM, first compound 0.0316 µM
[10] = second compound 0.003 µM, first compound 0.1 µM
[11] = second compound 0.003 µM, first compound 0.316 µM
[12] = second compound 0.003 µM, first compound 1 µM
[13] = second compound 0.00949 µM, first compound 0.00316 µM
[14] = second compound 0.00949 µM, first compound 0.01 µM
[15] = second compound 0.00949 µM, first compound 0.0316 µM
[16] = second compound 0.00949 µM, first compound 0.1 µM
[17] = second compound 0.00949 µM, first compound 0.316 µM
[18] = second compound 0.00949 µM, first compound 1 µM
[19] = second compound 0.03 µM, first compound 0.00316 µM
[20] = second compound 0.03 µM, first compound 0.01 µM
[21] = second compound 0.03 µM, first compound 0.0316 µM
[22] = second compound 0.03 µM, first compound 0.1 µM
[23] = second compound 0.03 µM, first compound 0.316 µM
[24] = second compound 0.03 µM, first compound 1 µM
[25] = second compound 0.0949 µM, first compound 0.00316 µM
[26] = second compound 0.0949 µM, first compound 0.01 µM
[27] = second compound 0.0949 µM, first compound 0.0316 µM
[28] = second compound 0.0949 µM, first compound 0.1 µM
[29] = second compound 0.0949 µM, first compound 0.316 µM
[30] = second compound 0.0949 µM, first compound 1 µM
[31] = second compound 0.3 µM, first compound 0.00316 µM
[32] = second compound 0.3 µM, first compound 0.01 µM
[33] = second compound 0.3 µM, first compound 0.0316 µM
[34] = second compound 0.3 µM, first compound 0.1 µM
[35] = second compound 0.3 µM, first compound 0.316 µM
[36] = second compound 0.3 µM, first compound 1 µM
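Note: viability read after seven days of drug exposure.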
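Throughout, for viability, T/C: 100% = DMSO vehicle control viability.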

C=CC(=O)Nc1cc(Nc2nccc(-c3cn(C)c4ccccc34)n2)c(OC)cc1N(C)CCN(C)C + CCn1c(-c2cccnc2C(C)OC)c2c3cc(ccc31)N1CCOC(CC(NC(=O)C(C(C)C)N(C)C(=O)C3(F)CCN(C(=O)C#CC(C)(C)N(C)C)CC3)C(=O)N3CCCC(N3)C(=O)OCC(C)(C)C2)C1
IC50 (second compound 0.000949 µM): 0.554 µM | IC50 (second compound 0.003 µM): 0.571 µM | IC50 (second compound 0.00949 µM): 0.453 µM | IC50 (second compound 0.03 µM): 0.6 µM | IC50 (second compound 0.0949 µM): 0.525 µM | IC50 (second compound 0.3 µM): 0.287 µM | viability, T/C [1]: 85.2% | viability, T/C [2]: 80.6% | viability, T/C [3]: 73.5% | viability, T/C [4]: 100% | viability, T/C [5]: 60.9% | viability, T/C [6]: 38.5% | viability, T/C [7]: 91.3% | viability, T/C [8]: 83.4% | viability, T/C [9]: 95.2% | viability, T/C [10]: 114% | viability, T/C [11]: 59.7% | viability, T/C [12]: 40.8% | viability, T/C [13]: 94.1% | viability, T/C [14]: 70.7% | viability, T/C [15]: 87.6% | viability, T/C [16]: 82.2% | viability, T/C [17]: 56.3% | viability, T/C [18]: 36.1% | viability, T/C [19]: 80.9% | viability, T/C [20]: 88% | viability, T/C [21]: 84.5% | viability, T/C [22]: 73% | viability, T/C [23]: 60.6% | viability, T/C [24]: 42.1% | viability, T/C [25]: 106% | viability, T/C [26]: 83.3% | viability, T/C [27]: 84.5% | viability, T/C [28]: 80.2% | viability, T/C [29]: 67.7% | viability, T/C [30]: 31.5% | viability, T/C [31]: 74.5% | viability, T/C [32]: 74.9% | viability, T/C [33]: 85.7% | viability, T/C [34]: 52.8% | viability, T/C [35]: 54.2% | viability, T/C [36]: 32.3%

CC(Nc1ccc2c(c1)OCCn1cc(N3C(=O)OCC3C(F)F)nc1-2)C(N)=O (stereo unspecified) + CCn1c(-c2cccnc2C(C)OC)c2c3cc(ccc31)N1CCOC(CC(NC(=O)C(C(C)C)N(C)C(=O)C3(F)CCN(C(=O)C#CC(C)(C)N(C)C)CC3)C(=O)N3CCCC(N3)C(=O)OCC(C)(C)C2)C1
IC50 (second compound 0.000949 µM): > 10 µM | IC50 (second compound 0.003 µM): 8.53 µM | IC50 (second compound 0.00949 µM): > 10 µM | IC50 (second compound 0.03 µM): > 10 µM | IC50 (second compound 0.0949 µM): > 10 µM | IC50 (second compound 0.3 µM): > 10 µM | viability, T/C [3]: 80.8% | viability, T/C [4]: 68.8% | viability, T/C [5]: 68.7% | viability, T/C [6]: 34.9% | viability, T/C (second compound 0.000949 µM, first compound 3.16 µM): 80.1% | viability, T/C (second compound 0.000949 µM, first compound 10 µM): 39.4% | viability, T/C [9]: 95.4% | viability, T/C [10]: 79.6% | viability, T/C [11]: 62.1% | viability, T/C [12]: 50.1% | viability, T/C (second compound 0.003 µM, first compound 3.16 µM): 86% | viability, T/C (second compound 0.003 µM, first compound 10 µM): 37.5% | viability, T/C [15]: 103% | viability, T/C [16]: 84.1% | viability, T/C [17]: 72.3% | viability, T/C [18]: 62.9% | viability, T/C (second compound 0.00949 µM, first compound 3.16 µM): 81.9% | viability, T/C (second compound 0.00949 µM, first compound 10 µM): 42.3% | viability, T/C [21]: 91.8% | viability, T/C [22]: 70.1% | viability, T/C [23]: 59.9% | viability, T/C [24]: 45.3% | viability, T/C (second compound 0.03 µM, first compound 3.16 µM): 89.3% | viability, T/C (second compound 0.03 µM, first compound 10 µM): 37.8% | viability, T/C [27]: 71.8% | viability, T/C [28]: 67.5% | viability, T/C [29]: 52.6% | viability, T/C [30]: 50.4% | viability, T/C (second compound 0.0949 µM, first compound 3.16 µM): 100% | viability, T/C (second compound 0.0949 µM, first compound 10 µM): 40.9% | viability, T/C [33]: 69.6% | viability, T/C [34]: 52% | viability, T/C [35]: 70.8% | viability, T/C [36]: 52.8% | viability, T/C (second compound 0.3 µM, first compound 3.16 µM): 69.1% | viability, T/C (second compound 0.3 µM, first compound 10 µM): 42.1%

O=C(c1ccc(F)c(F)c1Nc1ccc(I)cc1F)N1CC(O)([C@@H]2CCCCN2)C1 + CCn1c(-c2cccnc2C(C)OC)c2c3cc(ccc31)N1CCOC(CC(NC(=O)C(C(C)C)N(C)C(=O)C3(F)CCN(C(=O)C#CC(C)(C)N(C)C)CC3)C(=O)N3CCCC(N3)C(=O)OCC(C)(C)C2)C1
IC50 (second compound 0.000949 µM): 0.0812 µM | IC50 (second compound 0.003 µM): 0.0855 µM | IC50 (second compound 0.00949 µM): 0.0803 µM | IC50 (second compound 0.03 µM): 0.067 µM | IC50 (second compound 0.0949 µM): 0.0664 µM | IC50 (second compound 0.3 µM): 0.0354 µM | viability, T/C [1]: 71.6% | viability, T/C [2]: 85.1% | viability, T/C [3]: 71% | viability, T/C [4]: 44.4% | viability, T/C [5]: 19.4% | viability, T/C [6]: 9.33% | viability, T/C [7]: 91.1% | viability, T/C [8]: 88.8% | viability, T/C [9]: 66.6% | viability, T/C [10]: 51.4% | viability, T/C [11]: 17.6% | viability, T/C [12]: 6.84% | viability, T/C [13]: 88.6% | viability, T/C [14]: 67.5% | viability, T/C [15]: 69.9% | viability, T/C [16]: 48.1% | viability, T/C [17]: 22.3% | viability, T/C [18]: 9.42% | viability, T/C [19]: 105% | viability, T/C [20]: 80.2% | viability, T/C [21]: 66.3% | viability, T/C [22]: 42.9% | viability, T/C [23]: 22.1% | viability, T/C [24]: 7.71% | viability, T/C [25]: 81.5% | viability, T/C [26]: 84% | viability, T/C [27]: 60.6% | viability, T/C [28]: 43.1% | viability, T/C [29]: 20.8% | viability, T/C [30]: 7.03% | viability, T/C [31]: 73.4% | viability, T/C [32]: 65.5% | viability, T/C [33]: 47% | viability, T/C [34]: 42% | viability, T/C [35]: 19.2% | viability, T/C [36]: 6.79%
